In patent US20130261066A1, “TREATMENT OF INFLAMMATORY BOWEL DISEASES USING A TRIPEPTIDE” (THE RESEARCH FOUNDATION OF STATE UNIVERSITY OF NEW YORK, priority 2010, published 2013):

System: NF-kB
Assay: Inhibition of NF-kB by D-amino-acid and cyclized peptides
Source text: The following acetylated peptides, composed of D amino acids, were synthesized and tested for inhibition of NF-kB: 1) Ac-dGln-dALa-dTrp (SEQ ID NO:9); and 2) Ac-dPhe-dLeu-dLys-dGln-dALa-dTrp (SEQ ID NO:10). […] The following acetylated peptide, cyclized through its N- and C-terminals, was synthesized and tested for inhibition of NF-kB: Ac-Phe-Leu-Lys-Gln-Ala-Trp (SEQ ID NO:6).

Row | Substance | inhibition of NF-kB
1 | Ac-dGln-dALa-dTrp | effective inhibition of NF-kB
2 | Ac-Phe-Leu-Lys-Gln-Ala-Trp (Ac-cyclo(FLKQAW)) | effective inhibition of NF-kB
3 | Ac-dPhe-dLeu-dLys-dGln-dALa-dTrp | effective inhibition of NF-kB
